Assay results as given in patent US20220304955A1 (Nacuity Pharmaceuticals, Inc., priority 2021, published 2022).
Structures can show the parent of a compound that is named as a salt. Positions of bridges follow the written chain, without caps; N, C: chain ends. Non-standard residues stand in square brackets, D forms with d. Residues, ends and D or L forms follow the SMILES beside them. *: point of attachment. Ileψ(thiazoline)Cys = CC[C@H](C)[C@H](N)C1=N[C@H](C(=O)*)CS1; dOrn = NCCC[C@@H](N)C(=O)O

Assays:
N27 cells [1] = settings: for solvent concentration over which cell viability is reduced: rat, 24 h
Description: Viability of cells treated with water, dimethyl sulfoxide (DMSO) or NMP (0.3-20% v/v) for 24 hours. Data are means±SEM, n=3.
Materials and Methods. […] N27 cells, derived from E12 rat mesencephalic tissue (Merck, Australia), were cultured in RPMI 1640 media (ThermoFisher Scientific) supplemented with 10% fetal calf serum (Bovogen, Australia) and penicillin and streptomycin (ThermoFisher Scientific, Australia). Cells were cultured at 37° C. with 5% CO2. Cellular ferroptosis assays were used to evaluate anti-ferroptotic activity of test articles (Southon et al., 2019). Liproxstatin-1 (lip1) was used as an anti-ferroptotic control. […] Cell viability was measured by 3-[4,5-dimethylthiazol-2-yl]-2,5-diphenyltetrazolium bromide (MTT) assay, absorbance measured at 570 nm using a PowerWave XS microplate spectrophotometer (BioTek Instruments, Winooski, USA), and expressed as a percentage of control cells (Southon et al., 2019).
The toxicity profile of solvents NMP, DMSO and water were evaluated in N27 cells (FIG. 2).

C. elegans [2] = settings: Drug Age Database listing; cited from earlier work
C. elegans [3] = settings: 10 mM DEM alone, 24 hour exposure; cited from earlier work
Caenorhabditis elegans = Caenorhabditis elegans Lifespan assay; type: in vivo; settings: for Median survival: from late L4 larval/young adult stage, 25 °C, strain TJ1060
Description: NAC and NACA were dissolved in sterile water then added to the molten NGM at 55° C. Media containing equivalent vehicle alone (1% v/v DMSO) was used for comparison. 1% v/v DMSO was also added to NAC and NACA plates for consistency, as DMSO itself may affect lifespan. Standard overnight culture of the Escherichia coli strain OP50 was used as the food source. Lifespan data were collected at 25 (±1) ° C. using the temperature sensitive-sterile strain TJ1060 [spe-9(hc88); rrf-3(b26)] as a proxy for wildtype. A developmentally synchronous population was obtained by transferring egg-laying adults to fresh plates at 16° C. for 4 hours. The adults were removed and the plates with eggs then transferred to 25° C. to ensure sterility. After 48 hours at 25° C., when worms were at the late L4 larval/young adult stage, 25-35 nematodes were transferred to fresh plates containing either vehicle control (1% v/v DMSO), 1 mM NAC, 10 mM NAC, 1 mM NACA, 10 mM NACA, 1 mM diNACA, and 10 mM diNACA. All plates were coded to allowing blinding of the experimenter to the treatment regime during scoring. Nematodes were scored for survival at 1 to 2-day intervals and transferred to freshly prepared plates as needed (every 2-4 days). Worms lost not due to death were recorded as censored.
Results. Data was analyzed using GraphPad Prism 9, with survival curves compared using a long-rank (Mantel-Cox) test. P values are given for pair-wise comparisons to the vehicle control population.

C. elegans [4] = assay: Diethyl maleate (DEM) assay, survival of C. elegans; type: in vivo, Caenorhabditis elegans; settings: for % alive: then 10 mM DEM, scored at 24 hours
Description: Materials and Methods. Effects of NAC, NACA and diNACA on diethyl maleate (DEM; Sigma-Aldrich)-induced toxicity in C. elegans was evaluated. (10 mM DEM alone conjugates GSH causing 50% depletion of GSH and 50% lethality after 24 hour exposure (Jenkins et al., 2020)). DEM was added to neat DMSO and added to molten NGM at 55° C. to a final concentration of 10 mM DEM and 0.5% v/v DMSO. Plates were seeded with E. coli strain OP50. Data were collected at 25 (±1) ° C. using the temperature sensitive-sterile strain TJ1060. A synchronous population was obtained by transferring egg-laying adults to fresh plates at 16° C. for 2-3 hours. The adults were removed and the plates with eggs then transferred to 25° C. to ensure sterility. After 48 hours at 25° C., when worms were at the late L4/young adult stage, 70 nematodes were transferred to fresh plates containing either vehicle control, 1 mM NAC, 10 mM NAC, 1 mM NACA, 10 mM NACA, 1 mM diNACA, 10 mM diNACA (all with 1.0% v/v DMSO). Worms were aged at 25° C. for a further 4 days and then transferred to DEM plates, 35-45 per plate, two plates per treatment. Survival, determined by touch-provoked movement, was scored at 24 hours after exposure to DEM.

N27 cells [5] = assay: Cellular ferroptosis assay, cell viability by MTT; type: cell-based, rat; settings: for preventing ferroptosis, NAC compared with NACA: 50 μM in media or PBS, erastin 0.1-8 μM, RSL3 3-400 nM or glutamate 3-400 mM, 24 hr; for anti-ferroptotic activity on pretreatment prior to ferroptosis induction: 50 or 500 μM in PBS for 24 hours, then erastin, RSL3 or glutamate for additional 24 hours; for prevention of ferroptosis induced by erastin, RSL3 and glutamate (cell viability): erastin 2 μM, RSL3 100 nM or glutamate 100 mM, 24 hours, added at same time, liproxstatin-1 4-250 nM, NAC, NACA (in water), diNACA (in NMP) 8-500 μM; for anti-ferroptotic activity on post-treatment: erastin, RSL3 or glutamate for 5 hours, then 50 or 500 μM in PBS for additional 19 hours
Description: Materials and Methods. […] Cells were cultured at 37° C. with 5% CO2.

[6] = humans, oral dose of 600 mg; cited from earlier work

C[S+](C)[O-] [DMSO, dimethyl sulfoxide]
solvent concentration over which cell viability is reduced (N27 cells [1]): over 1.3%

Cc1ccc2c(c1)sc(-c1ccc(N(C)C)cc1)[n+]2C.[Cl-] [thioflavin T]
life extension of C. elegans (C. elegans [2]): 78%

CC(=O)Nc1ccc(O)cc1 [acetaminophen]
life extension of C. elegans (C. elegans [2]): 66%

CN1CCCC1=O [NMP, N-methyl pyrrolidone]
solvent concentration over which cell viability is reduced (N27 cells [1]): over 0.3%

CCOC(=O)/C=C\C(=O)OCC [DEM, diethyl maleate]
depletion of GSH (C. elegans [3]): 50% | lethality (C. elegans [3]): 50%

O [Water, water]
effect of solvent on cell viability (N27 cells [1]): did not reduce cell viability

CC(=O)N[C@@H](CS)C(N)=O
increase in lifespan (Caenorhabditis elegans; 1 mM): minor increase | Median survival (Caenorhabditis elegans; 1 mM in NGM): 10 days | increase in lifespan (Caenorhabditis elegans; 10 mM): marked increase in lifespan | Median survival (Caenorhabditis elegans; 10 mM in NGM): 16 days | rescue from DEM-induced toxicity (C. elegans [4]; 1 mM): rescue | % alive (C. elegans [4]; 1 mM pre-treatment 4 days): 91% | rescue from DEM-induced toxicity (C. elegans [4]; 10 mM): rescue | % alive (C. elegans [4]; 10 mM pre-treatment 4 days): 98% | preventing ferroptosis, NAC compared with NACA (N27 cells [5]): similarly effective at preventing ferroptosis | anti-ferroptotic activity on pretreatment prior to ferroptosis induction (N27 cells [5]): did not differentiate anti-ferroptotic activity | prevention of ferroptosis induced by erastin, RSL3 and glutamate (cell viability) (N27 cells [5]): efficacy in the micromolar range | anti-ferroptotic activity on post-treatment (N27 cells [5]): did not differentiate anti-ferroptotic activity

CC(=O)N[C@@H](CS)C(=O)O [NAC, N-acetylcysteine, reference compound]
Median survival (Caenorhabditis elegans; 1 mM in NGM): 10 days | increase in lifespan (Caenorhabditis elegans; 10 mM): minor increase | Median survival (Caenorhabditis elegans; 10 mM in NGM): 10 days | plasma half-life [6]: 2.5 h | time after administration at which no NAC is detectable [6]: 10 to 12 h | % alive (C. elegans [4]; 1 mM pre-treatment 4 days): 80% | rescue from DEM-induced toxicity (C. elegans [4]; 10 mM): rescue | % alive (C. elegans [4]; 10 mM pre-treatment 4 days): 89% | preventing ferroptosis, NAC compared with NACA (N27 cells [5]): similarly effective at preventing ferroptosis | anti-ferroptotic activity on pretreatment prior to ferroptosis induction (N27 cells [5]): did not differentiate anti-ferroptotic activity | prevention of ferroptosis induced by erastin, RSL3 and glutamate (cell viability) (N27 cells [5]): efficacy in the micromolar range | anti-ferroptotic activity on post-treatment (N27 cells [5]): did not differentiate anti-ferroptotic activity | life extension of C. elegans (C. elegans [2]): 64%

CC[C@H](C)[C@H](N)C1=N[C@H](C(=O)N[C@@H](CC(C)C)C(=O)N[C@H](CCC(=O)O)C(=O)N[C@H](C(=O)N[C@H]2CCCCNC(=O)[C@H](CC(N)=O)NC(=O)[C@@H](CC(=O)O)NC(=O)[C@H](Cc3cnc[nH]3)NC(=O)[C@@H](Cc3ccccc3)NC(=O)[C@H]([C@@H](C)CC)NC(=O)[C@@H](CCCN)NC2=O)[C@@H](C)CC)CS1 [bacitracin] ({Ileψ(thiazoline)Cys}-L[dE]IK[dOrn]I[dF]H[dD]N; lactam 4-C)
life extension of C. elegans (C. elegans [2]): 74%

Clc1cccc(CN=C2Nc3ccccc3NC23CCNCC3)c1 [Lip1, Liproxstatin-1, reference compound]
prevention of ferroptosis induced by erastin, RSL3 and glutamate (cell viability) (N27 cells [5]): nanomolar efficacy
